# Assay results: US20260132129A1 (Genesis Therapeutics, Inc., priority 2022, published 2026)
# Target: T1, PI3Kα H1047R (T47D cells) (Homo sapiens, UniProt P42336, H1047R)
# T1 construct: endogenous in cells; host or cells: T47D cells
# Experiment: PI3Kα cellular assay: pAKT HTRF in T47D cells after EGF stimulation
# Type: cell-based
# Details: for IC50: T47D cells (PI3Kα H1047R), pAKT S473 HTRF, EGF stimulation
# Method in brief: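 T47D cells (PIK3CA H1047R) serum-starved 16 h, then treated 1 h at 37 °C with compound (10,000 nM top, 3-fold steps to 0.5 nM). After 10 min stimulation with 20 ng/mL EGF, cells were lysed and pAKT measured by HTRF.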
# T1 sequence (P42336 whole entry H1047R): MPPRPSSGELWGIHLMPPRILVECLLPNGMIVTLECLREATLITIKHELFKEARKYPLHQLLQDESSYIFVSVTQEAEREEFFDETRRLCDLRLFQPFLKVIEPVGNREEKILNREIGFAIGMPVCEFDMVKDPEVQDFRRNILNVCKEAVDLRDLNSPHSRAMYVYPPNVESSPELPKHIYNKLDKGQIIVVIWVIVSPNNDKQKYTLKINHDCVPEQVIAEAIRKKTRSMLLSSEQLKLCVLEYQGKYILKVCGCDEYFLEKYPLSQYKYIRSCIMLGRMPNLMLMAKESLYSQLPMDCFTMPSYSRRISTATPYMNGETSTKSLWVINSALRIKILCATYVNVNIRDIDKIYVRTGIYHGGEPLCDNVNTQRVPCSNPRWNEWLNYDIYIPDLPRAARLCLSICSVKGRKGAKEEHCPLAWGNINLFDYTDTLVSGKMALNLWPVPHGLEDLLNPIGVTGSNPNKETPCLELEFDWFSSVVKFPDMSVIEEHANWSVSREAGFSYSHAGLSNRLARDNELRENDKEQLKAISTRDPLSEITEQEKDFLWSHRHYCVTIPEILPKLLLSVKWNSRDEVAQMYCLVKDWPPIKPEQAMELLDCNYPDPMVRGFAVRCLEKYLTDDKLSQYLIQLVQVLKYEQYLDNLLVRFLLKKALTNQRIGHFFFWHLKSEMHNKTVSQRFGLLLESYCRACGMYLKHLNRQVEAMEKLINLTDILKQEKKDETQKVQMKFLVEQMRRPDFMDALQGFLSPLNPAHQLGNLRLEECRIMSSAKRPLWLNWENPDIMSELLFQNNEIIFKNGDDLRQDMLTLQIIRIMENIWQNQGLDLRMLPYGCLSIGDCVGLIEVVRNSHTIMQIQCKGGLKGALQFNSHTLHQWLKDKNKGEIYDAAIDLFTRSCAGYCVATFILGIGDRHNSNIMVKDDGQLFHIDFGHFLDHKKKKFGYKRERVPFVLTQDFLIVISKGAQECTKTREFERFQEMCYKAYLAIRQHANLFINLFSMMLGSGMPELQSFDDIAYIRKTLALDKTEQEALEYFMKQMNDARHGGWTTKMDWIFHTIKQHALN
# T1 sequence (P27986 whole entry partner): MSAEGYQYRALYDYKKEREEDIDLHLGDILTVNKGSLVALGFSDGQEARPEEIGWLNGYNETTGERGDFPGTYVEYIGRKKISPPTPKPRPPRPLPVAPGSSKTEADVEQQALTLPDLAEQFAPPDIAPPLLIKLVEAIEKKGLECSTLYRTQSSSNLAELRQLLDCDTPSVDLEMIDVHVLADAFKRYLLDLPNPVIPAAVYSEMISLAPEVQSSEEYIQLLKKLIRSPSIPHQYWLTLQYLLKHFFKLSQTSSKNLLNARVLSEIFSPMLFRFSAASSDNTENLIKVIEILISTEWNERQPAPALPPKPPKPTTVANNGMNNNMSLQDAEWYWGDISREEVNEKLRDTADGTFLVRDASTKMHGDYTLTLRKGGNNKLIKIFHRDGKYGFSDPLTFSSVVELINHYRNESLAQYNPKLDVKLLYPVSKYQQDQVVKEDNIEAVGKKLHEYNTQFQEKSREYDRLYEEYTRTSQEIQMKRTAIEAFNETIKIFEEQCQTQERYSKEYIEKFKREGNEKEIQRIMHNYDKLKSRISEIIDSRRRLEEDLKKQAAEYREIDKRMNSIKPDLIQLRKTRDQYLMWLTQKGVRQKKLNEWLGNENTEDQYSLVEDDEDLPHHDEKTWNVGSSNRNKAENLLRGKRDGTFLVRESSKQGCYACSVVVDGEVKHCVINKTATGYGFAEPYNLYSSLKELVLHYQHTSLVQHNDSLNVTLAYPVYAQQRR
smiles,measurement,value
Cc1cc([C@@H](C)Nc2ccccc2S(N)(=O)=O)c2nc(-c3ccnc(C4CC4)c3)c(C)c(=O)n2c1 [Compound 1095],IC50,> 2 µM
same,T47D pAKT S473 HTRF IC50 (H1047R): T47D (H1047R) selectivity over SKBR3 (WT),C (C denotes ≤5-fold)
Cc1cc(C(C)Nc2ccccc2S(N)(=O)=O)c2nc(-c3ccnc(C4CC4)c3)c(C)c(=O)n2c1 (stereo not shown) [Compound 1096],IC50,< 0.1 µM
same,T47D pAKT S473 HTRF IC50 (H1047R): T47D (H1047R) selectivity over SKBR3 (WT),A (A denotes >20-fold)
Cc1cc([C@@H](C)Nc2ccccc2S(N)(=O)=O)c2nc(-c3cccc(C(F)F)c3)c(C)c(=O)n2c1 [Compound 1097],IC50,< 0.1 µM
same,T47D pAKT S473 HTRF IC50 (H1047R): T47D (H1047R) selectivity over SKBR3 (WT),A (A denotes >20-fold)
Cc1cc([C@H](C)Nc2ccccc2S(N)(=O)=O)c2nc(-c3cccc(C(F)F)c3)c(C)c(=O)n2c1 [Compound 1098],IC50,> 2 µM
same,T47D pAKT S473 HTRF IC50 (H1047R): T47D (H1047R) selectivity over SKBR3 (WT),C (C denotes ≤5-fold)
Cc1cc(C(C)Nc2ccccc2C(=O)O)c2nc(-c3cc(C)nc(Cl)c3)c(C)c(=O)n2c1 (stereo not shown) [Compound 1099],IC50,< 0.1 µM
same,T47D pAKT S473 HTRF IC50 (H1047R): T47D (H1047R) selectivity over SKBR3 (WT),A (A denotes >20-fold)
COc1cc(-c2nc3c([C@@H](C)Nc4ccccc4C(=O)O)cc(C)cn3c(=O)c2C)ccn1 [Compound 1101],IC50,< 0.1 µM
same,T47D pAKT S473 HTRF IC50 (H1047R): T47D (H1047R) selectivity over SKBR3 (WT),A (A denotes >20-fold)
Cc1cc(C(C)Nc2ccccc2C(=O)O)c2nc(-c3cc(F)cc(C#N)c3)c(C)c(=O)n2c1 (stereo not shown) [Compound 1103],IC50,< 0.1 µM
same,T47D pAKT S473 HTRF IC50 (H1047R): T47D (H1047R) selectivity over SKBR3 (WT),A (A denotes >20-fold)
Cc1cc([C@@H](C)Nc2ccccc2S(N)(=O)=O)c2nc(-c3cccnc3)c(C)c(=O)n2c1 [Compound 1107],IC50,< 0.1 µM
same,T47D pAKT S473 HTRF IC50 (H1047R): T47D (H1047R) selectivity over SKBR3 (WT),A (A denotes >20-fold)
Cc1cc([C@H](C)Nc2ccccc2S(N)(=O)=O)c2nc(-c3cccnc3)c(C)c(=O)n2c1 [Compound 1108],IC50,0.5 to 2 µM
same,T47D pAKT S473 HTRF IC50 (H1047R): T47D (H1047R) selectivity over SKBR3 (WT),B (B denotes 20-fold≥value>5-fold)
Cc1cc([C@@H](C)Nc2ccccc2C(=O)O)c2nc(-c3ccc(C4CC4)nc3)cc(=O)n2c1 [Compound 1111],IC50,< 0.1 µM
same,T47D pAKT S473 HTRF IC50 (H1047R): T47D (H1047R) selectivity over SKBR3 (WT),A (A denotes >20-fold)
Cc1cc([C@H](C)Nc2ccccc2C(=O)O)c2nc(C3C=NC(C4CC4)=CC3)cc(=O)n2c1 (stereo partly shown) [Compound 1112],T47D pAKT S473 HTRF IC50 (H1047R): T47D (H1047R) selectivity over SKBR3 (WT),B (B denotes 20-fold≥value>5-fold)
Cc1cc([C@@H](C)Nc2ccccc2C(=O)O)c2nc(-c3cccc(C(F)F)c3)cc(=O)n2c1 [Compound 1113],IC50,> 2 µM
same,T47D pAKT S473 HTRF IC50 (H1047R): T47D (H1047R) selectivity over SKBR3 (WT),C (C denotes ≤5-fold)
Cc1cc([C@H](C)Nc2ccccc2C(=O)O)c2nc(-c3cccc(C(F)F)c3)cc(=O)n2c1 [Compound 1114],IC50,< 0.1 µM
same,T47D pAKT S473 HTRF IC50 (H1047R): T47D (H1047R) selectivity over SKBR3 (WT),A (A denotes >20-fold)
CCc1c(-c2ccc(F)cc2)nc2c([C@@H](C)Nc3ccccc3C(=O)O)cc(C)cn2c1=O [Compound 1115],IC50,< 0.1 µM
same,T47D pAKT S473 HTRF IC50 (H1047R): T47D (H1047R) selectivity over SKBR3 (WT),A (A denotes >20-fold)
CCc1c(-c2ccc(F)cc2)nc2c([C@H](C)Nc3ccccc3C(=O)O)cc(C)cn2c1=O [Compound 1116],IC50,0.5 to 2 µM
same,T47D pAKT S473 HTRF IC50 (H1047R): T47D (H1047R) selectivity over SKBR3 (WT),B (B denotes 20-fold≥value>5-fold)
Cc1cc(C(C)Nc2ccccc2C#N)c2nc(-c3ccccc3)c(C)c(=O)n2c1 (stereo not shown) [Compound 1117],T47D pAKT S473 HTRF IC50 (H1047R): T47D (H1047R) selectivity over SKBR3 (WT),B (B denotes 20-fold≥value>5-fold)
C=CC(=O)Nc1ccc(C(=O)O)c(N[C@H](C)c2cc(C)cn3c(=O)c(C)c(N4Cc5ccccc5C4)nc23)c1 [Compound 1121],IC50,> 2 µM
same,T47D pAKT S473 HTRF IC50 (H1047R): T47D (H1047R) selectivity over SKBR3 (WT),C (C denotes ≤5-fold)
C=CC(=O)Nc1ccc(C(=O)O)c(N[C@@H](C)c2cc(C)cn3c(=O)c(C)c(N4Cc5ccccc5C4)nc23)c1 [Compound 1122],IC50,> 2 µM
same,T47D pAKT S473 HTRF IC50 (H1047R): T47D (H1047R) selectivity over SKBR3 (WT),C (C denotes ≤5-fold)
Cc1cc([C@@H](C)Nc2ccccc2)c2nc(-c3ccc(F)cc3)c(C)c(=O)n2c1 [Compound 1123],IC50,> 2 µM
same,T47D pAKT S473 HTRF IC50 (H1047R): T47D (H1047R) selectivity over SKBR3 (WT),C (C denotes ≤5-fold)
Cc1cc([C@H](C)Nc2ccccc2)c2nc(-c3ccc(F)cc3)c(C)c(=O)n2c1 [Compound 1124],IC50,> 2 µM
same,T47D pAKT S473 HTRF IC50 (H1047R): T47D (H1047R) selectivity over SKBR3 (WT),C (C denotes ≤5-fold)
Cc1cc([C@H](C)Nc2ccccc2C(=O)O)c2nc(-c3ccc4c(C)nn(C5CC5)c4c3)c(C)c(=O)n2c1 [Compound 1126],IC50,> 2 µM
same,T47D pAKT S473 HTRF IC50 (H1047R): T47D (H1047R) selectivity over SKBR3 (WT),C (C denotes ≤5-fold)
Cc1cc(C(C)Nc2ccccc2-c2ccnnc2)c2nc(-c3ccc4c(C)nn(C5CC5)c4c3)c(C)c(=O)n2c1 (stereo not shown) [Compound 1127],IC50,> 2 µM
same,T47D pAKT S473 HTRF IC50 (H1047R): T47D (H1047R) selectivity over SKBR3 (WT),C (C denotes ≤5-fold)
Cc1cc([C@@H](C)Nc2ccccc2-c2ccnnc2)c2nc(-c3ccc4c(C)nn(C5CC5)c4c3)c(C)c(=O)n2c1 [Compound 1128],IC50,> 2 µM
same,T47D pAKT S473 HTRF IC50 (H1047R): T47D (H1047R) selectivity over SKBR3 (WT),C (C denotes ≤5-fold)
Cc1cc([C@H](C)Nc2ccccc2-c2ccnnc2)c2nc(-c3ccc4c(C)nn(C5CC5)c4c3)c(C)c(=O)n2c1 [Compound 1129],IC50,0.5 to 2 µM
same,T47D pAKT S473 HTRF IC50 (H1047R): T47D (H1047R) selectivity over SKBR3 (WT),B (B denotes 20-fold≥value>5-fold)
Cc1cc([C@H](C)Nc2ccccc2C(N)=O)c2nc(-c3ccc4c(C)cn(C)c4c3)c(C)c(=O)n2c1 [Compound 1131],IC50,> 2 µM
same,T47D pAKT S473 HTRF IC50 (H1047R): T47D (H1047R) selectivity over SKBR3 (WT),C (C denotes ≤5-fold)
Cc1cc(C(C)Nc2ccccc2-c2ccnnc2)c2nc(-c3ccc4c(C)cn(C)c4c3)c(C)c(=O)n2c1 (stereo not shown) [Compound 1132],IC50,> 2 µM
same,T47D pAKT S473 HTRF IC50 (H1047R): T47D (H1047R) selectivity over SKBR3 (WT),C (C denotes ≤5-fold)
Cc1cc([C@@H](C)Nc2ccccc2-c2ccnnc2)c2nc(-c3ccc4c(C)cn(C)c4c3)c(C)c(=O)n2c1 [Compound 1133],IC50,> 2 µM
same,T47D pAKT S473 HTRF IC50 (H1047R): T47D (H1047R) selectivity over SKBR3 (WT),C (C denotes ≤5-fold)
Cc1cc([C@H](C)Nc2ccccc2-c2ccnnc2)c2nc(-c3ccc4c(C)cn(C)c4c3)c(C)c(=O)n2c1 [Compound 1134],IC50,0.5 to 2 µM
same,T47D pAKT S473 HTRF IC50 (H1047R): T47D (H1047R) selectivity over SKBR3 (WT),B (B denotes 20-fold≥value>5-fold)
Cc1cc([C@@H](C)Nc2ccccc2C(N)=O)c2nc(-c3cnc(C)c(Cl)c3)c(C)c(=O)n2c1 [Compound 1135],IC50,0.1 to 0.5 µM
same,T47D pAKT S473 HTRF IC50 (H1047R): T47D (H1047R) selectivity over SKBR3 (WT),A (A denotes >20-fold)
Cc1cc([C@H](C)Nc2ccccc2C(N)=O)c2nc(-c3cnc(C)c(Cl)c3)c(C)c(=O)n2c1 [Compound 1136],IC50,> 2 µM
same,T47D pAKT S473 HTRF IC50 (H1047R): T47D (H1047R) selectivity over SKBR3 (WT),C (C denotes ≤5-fold)
Cc1cc([C@@H](C)Nc2ccccc2C(N)=O)c2nc(-c3cccc(C#N)c3)c(C)c(=O)n2c1 [Compound 1137],IC50,< 0.1 µM
same,T47D pAKT S473 HTRF IC50 (H1047R): T47D (H1047R) selectivity over SKBR3 (WT),A (A denotes >20-fold)
Cc1cc([C@H](C)Nc2ccccc2C(N)=O)c2nc(-c3cccc(C#N)c3)c(C)c(=O)n2c1 [Compound 1138],IC50,> 2 µM
same,T47D pAKT S473 HTRF IC50 (H1047R): T47D (H1047R) selectivity over SKBR3 (WT),C (C denotes ≤5-fold)
Cc1cc(C(C)Nc2ccccc2-c2ccnnc2)c2nc(-c3ccc(C)c(Cl)c3)c(C)c(=O)n2c1 (stereo not shown) [Compound 1140],T47D pAKT S473 HTRF IC50 (H1047R): T47D (H1047R) selectivity over SKBR3 (WT),A (A denotes >20-fold)
Cc1cc([C@@H](C)Nc2ccccc2-c2ccnnc2)c2nc(-c3cnc(C)c(Cl)c3)c(C)c(=O)n2c1 [Compound 1141],T47D pAKT S473 HTRF IC50 (H1047R): T47D (H1047R) selectivity over SKBR3 (WT),C (C denotes ≤5-fold)
Cc1cc(C(C)Nc2ccccc2-c2ccnnc2)c2nc(-c3cccnc3)c(C)c(=O)n2c1 (stereo not shown) [Compound 1143],IC50,0.1 to 0.5 µM
same,T47D pAKT S473 HTRF IC50 (H1047R): T47D (H1047R) selectivity over SKBR3 (WT),A (A denotes >20-fold)
Cc1cc([C@@H](C)Nc2ccccc2-c2ccnnc2)c2nc(-c3cccnc3)c(C)c(=O)n2c1 [Compound 1144],IC50,> 2 µM
same,T47D pAKT S473 HTRF IC50 (H1047R): T47D (H1047R) selectivity over SKBR3 (WT),C (C denotes ≤5-fold)
Cc1cc([C@H](C)Nc2ccccc2-c2ccnnc2)c2nc(-c3cccnc3)c(C)c(=O)n2c1 [Compound 1145],IC50,0.1 to 0.5 µM
same,T47D pAKT S473 HTRF IC50 (H1047R): T47D (H1047R) selectivity over SKBR3 (WT),A (A denotes >20-fold)
Cc1cc([C@@H](C)Nc2ccccc2C(=O)O)c2nc(-c3ccc(C4CCOCC4)nc3)c(C)c(=O)n2c1 [Compound 1146],IC50,< 0.1 µM
same,T47D pAKT S473 HTRF IC50 (H1047R): T47D (H1047R) selectivity over SKBR3 (WT),A (A denotes >20-fold)
Cc1cc([C@H](C)Nc2ccccc2C(=O)O)c2nc(-c3ccc(C4CCOCC4)nc3)c(C)c(=O)n2c1 [Compound 1147],IC50,> 2 µM
same,T47D pAKT S473 HTRF IC50 (H1047R): T47D (H1047R) selectivity over SKBR3 (WT),C (C denotes ≤5-fold)
Cc1cc([C@H](C)Nc2ccccc2C(=O)O)c2nc(-c3ccc(C(F)F)nc3)c(C)c(=O)n2c1 [Compound 1149],IC50,> 2 µM
same,T47D pAKT S473 HTRF IC50 (H1047R): T47D (H1047R) selectivity over SKBR3 (WT),C (C denotes ≤5-fold)
